This note sets out measurements from patent US8697724B2, “Crystalline oxalate salts of a diamide compound” (Theravance, Inc., priority 2010, dated 2014).

Data set [1] deals with methacholine (MCh)-induced bronchoconstriction. As to the kind of experiment: Einthoven assay: bronchoprotection against methacholine-induced bronchoconstriction. The class given is in vivo, rat. Conditions: male Sprague-Dawley rats, inhalation, 100 μg, at 24 h. Here is the method: This assay measures the ability of a test compound to provide bronchoprotection against methacholine (MCh)-induced bronchoconstriction in a rat.
Male Sprague-Dawley rats (Harlan, Indianapolis, Ind.), weighing between 200 g and 350 g, were used for all studies.
Test compound or vehicle (sterile deionized water) were dosed by inhalation (IH) over a 10 min period in a pie shaped inhalation chamber (R+S Molds, San Carlos, Calif.) using 5 mL of dosing solution. Rats were exposed to an aerosol, which was generated from an LC Star Nebulizer Set Model 22F51 (PARI Respiratory Equipment, Inc. Midlothian, Va.) driven by Bioblend (5% CO2/95% atmospheric air) at a pressure of 22 psi. Rats were dosed with 100 μg of test compound unless otherwise indicated.
At predetermined time points, rats were anesthetized with an intraperitoneal (IP) injection of 120 mg/kg inactin (thiobutabarbital). A supplemental dose (40 mg/kg, IP) was administered if the animal responded to physical stimuli (e.g. toe pinch). The surgical site was shaved and a 1-2 cm midline incision of the ventral aspect of the neck was made. […]
Changes in VP were recorded using the Acknowledge Data Collection Software (Santa Barbara, Calif.). […] Changes in ventilation pressure (cm H2O) in treated animals are expressed as % inhibition of MCh response relative to control animals.

Data set [2] is described as follows: Differential scanning calorimetry (thermal stability). The data set is classed as physicochemical. The conditions noted are these: DSC traces, 10° C./min. Here is the method: Differential scanning calorimetry (DSC) was performed using a TA Instruments Model Q-100 module with a Thermal Analyst controller. Data were collected and analyzed using TA Instruments Thermal Solutions software. A sample of about 2 mg was accurately weighed into an aluminum pan with lid. The sample was evaluated using a linear heating ramp of 10° C./min from ambient temperature to approximately 300° C. The DSC cell was purged with dry nitrogen during use. Representative DSC traces for Form 1 and Form 2 are shown in FIG. 2 and FIG. 5, respectively.

The nature of data set [3]: Dynamic moisture sorption (DMS) assessment. The class given is physicochemical. Here is the method: A dynamic moisture sorption (DMS) assessment (also known as a moisture sorption-desorption profile) was performed for a sample of Form 2 using a VTI atmospheric microbalance, SGA-100 system (VTI Corp., Hialeah, Fla. 33016). A sample size of approximately 10 mg was used and the humidity was set at the ambient value at the start of the analysis. A typical DMS analysis consisted of three scans: ambient to 5% relative humidity (RH), 5% RH to 90% RH, 90% RH to 5% RH at a scan rate of 5% RH/step. The mass was measured every two minutes and the RH was changed to the next value (+/−5% RH) when the mass of the sample was stable to within 0.01% for 5 consecutive points.

The mark [4] stands for this setting: reversible moisture sorption/desorption profile.

Counter-ions that a name gives are not always drawn.

For the molecule `CN(CCCCC(=O)Nc1ccc(CNC[C@H](O)c2ccc(O)c3[nH]c(=O)ccc23)cc1)C(=O)CCN1CCC(OC(=O)Nc2ccccc2-c2ccccc2)CC1` [Biphenyl-2-ylcarbamic Acid 1-(2-{[4-(4-{[(R)-2-hydroxy-2-(8-hydroxy-2-oxo-1,2-dihydroquinolin-5-yl)ethylamino]methyl}phenylcarbamoyl)-butyl]methylcarbamoyl}ethyl)piperidin-4-yl Ester Ditrifluoroacetic Acid Salt], the “% inhibition of MCh response” value in data set [1] is on record as “at least 40%”.

Consider `CN(CCCCC(=O)Nc1ccc(CNC[C@H](O)c2ccc(O)c3[nH]c(=O)ccc23)cc1)C(=O)CCN1CCC(OC(=O)Nc2ccccc2-c2ccccc2)CC1` [Form 1, Biphenyl-2-ylcarbamic Acid 1-(2-{[4-(4-{[(R)-2-Hydroxy-2-(8-hydroxy-2-oxo-1,2-dihydroquinolin-5-yl)ethylamino]methyl}-phenylcarbamoyl)butyl]methylcarbamoyl}ethyl)piperidin-4-yl Ester Oxalate Isopropanol Solvate Salt (Form 1)], for which the thermal stability entry in data set [2] is “excellent thermal stability”.

Take `CN(CCCCC(=O)Nc1ccc(CNC[C@H](O)c2ccc(O)c3[nH]c(=O)ccc23)cc1)C(=O)CCN1CCC(OC(=O)Nc2ccccc2-c2ccccc2)CC1` [Form 2, Biphenyl-2-ylcarbamic Acid 1-(2-{[4-(4-{[(R)-2-Hydroxy-2-(8-hydroxy-2-oxo-1,2-dihydroquinolin-5-yl)ethylamino]methyl}-phenylcarbamoyl)butyl]methylcarbamoyl}ethyl)piperidin-4-yl Ester Oxalate Hydrate Salt (Form 2)]: the “change in physical form during moisture sorption and desorption (PXRD before and after DMS)” value in data set [3] (PXRD profiles before and after the DMS experiment) was “no change in physical form occurred”. For the same molecule, the “weight gain (moisture sorption)” value in data set [3] (humidity range of 5% RH to 90% RH) was “about 1.6 weight %”. Also, in data set [3] (setting [4]), the deliquescence entry was “not deliquescent” and the hygroscopicity entry was “acceptable hygroscopicity”.
